Experiment in all cases: relative viability (nuclei count vs DMSO), 5 days (fraction); higher = more cells survive
Compound in experiment [1]: CC1=CC(=CC=C1)NC2=NC(=CS2)C3=CC=NC=C3 + CC(C)C[C@H](NC(=O)[C@H](Cc1ccccc1)NC(=O)c1cnccn1)B(O)O [Bortezomib] (partner 0.002 µM)
Put shortly: (§1)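 Relative viability is defined as nuclei in treated wells over nuclei in vehicle wells. Duplicate plates were run and medians reported. Lung cancer cell lines in 1536-well plates were dosed by pin tool one day after seeding, with one drug or with a fixed anchor-drug dose plus five library-drug doses (not always all listed) in √10 steps, and nuclei were counted after 5 days.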

Compound in experiment [2]: CC1=CC(=CC=C1)NC2=NC(=CS2)C3=CC=NC=C3 + COc1cccc2cc(-c3nc([C@H]4CC[C@H](C(=O)O)CC4)n4ncnc(N)c34)[nH]c12 [OSI-027] (partner 0.5 µM)
Put shortly: as §1

Compound in experiment [3]: CC1=CC(=CC=C1)NC2=NC(=CS2)C3=CC=NC=C3 + N=C(N)NC(=N)NCCc1ccccc1 [Phenformin] (partner 250 µM)
In short, it runs like this:
as §1

Compound in experiment [4]: Cc1ccc(NC(=O)c2ccc(CN3CCN(C)CC3)cc2)cc1Nc1nc(-c2cccnc2)cs1 [Masitinib] + COc1cc2c(Oc3ccc(NC(=O)C4(C(=O)Nc5ccc(F)cc5)CC4)cc3F)ccnc2cc1OCCCN1CCOCC1 [Foretinib] (partner 0.25 µM)
In short, it runs like this: as §1

As for UMC-11, the relative viability in experiment [1] (first compound 0.08 µM) stood at 0.761; in experiment [1] (first compound 0.253 µM), 0.839; in experiment [1] (first compound 0.8 µM), 0.635; in experiment [1] (first compound 2.53 µM), 0.67; in experiment [1] (first compound 8 µM), 0.686; in experiment [2] (first compound 0.08 µM) it was 0.448. Further, the relative viability in experiment [2] (first compound 0.253 µM) was 0.512; in experiment [2] (first compound 0.8 µM), 0.469; in experiment [2] (first compound 2.53 µM), 0.461; in experiment [2] (first compound 8 µM) it was 0.443; in experiment [3] (first compound 0.08 µM), 0.314; in experiment [3] (first compound 0.253 µM), 0.298. In addition, the relative viability amounted to 0.32 in experiment [3] (first compound 0.8 µM); 0.307 in experiment [3] (first compound 2.53 µM); 0.349 in experiment [3] (first compound 8 µM); 0.951 in experiment [4] (first compound 0.03162 µM); 1.12 in experiment [4] (first compound 0.1 µM); 1.17 in experiment [4] (first compound 0.3162 µM). Besides, the relative viability in experiment [4] (first compound 1 µM) was 1.15.
